Reference: patent US8426408B2, “Pyrimidine inhibitors of kinases” (AbbVie Inc., priority 2009, dated 2013)

Legend:
[1] = target: KDR (Homo sapiens, UniProt P35968); test: KDR HTRF in vitro kinase assay; format: biochemical; design: purified enzyme (His6-KDR 789-1354, MW 63 kD); His6 (N); settings: 1 mM ATP; read-out: KDR enzyme inhibition data (Ki)
How it was run: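 His6-KDR 789-1354 (7 ng/well) with 0.5 μM biotinylated peptide substrate and 1 mM ATP in HEPES pH 7.1, MgCl2/MnCl2, 60 min at room temperature. EDTA-quenched, detected by streptavidin-XL-665 plus Eu-kryptate anti-phosphotyrosine HTRF after 3 h; IC50 from 620/665 nm ratio.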

[2] = tested on: NCI-H1299 cells; test: Induction of polyploidy in H1299; format: cell-based, Human; settings: NCI-H1299, 48 hours
Protocol: To determine the induction of polyploidy in H1299 cells, NCI-H1299 were seeded (4K/well) into 96-well culture plates (tissue culture grade, black, flat-clear bottom) and incubated overnight to produce cell-to-plate adherence. Inhibitors at varying concentrations were added into duplicate wells containing cells and culture media (RPMI 1640, 10% fetal calf serum) and incubated at 37 C for 48 hours. The plates were then washed with PBS and the adherent cells fixed by incubating with 3% formalin for 1 hour. After washing four times with PBS, the cells were then stained with Hoechst and subjected to fluorescent (360 i/460e) microscopic high content analysis to determine the effect of inhibitors on nuclear size. Polyploid cells (≧4N) were defined as those having nuclear area>750μ^2. Potency was expressed as the concentration of inhibitor necessary to induce polyploidy in 15% of cells (EC15) and was calculated from least squares analysis of the log dose-response.

[3] = target: T1, Aurora A (Homo sapiens, UniProt O14965); test: Aurora A enzyme inhibition (time-resolved fluorescence, STK substrate-2); format: biochemical; settings: 1 mM ATP
T1 sequence (O14965 1-403): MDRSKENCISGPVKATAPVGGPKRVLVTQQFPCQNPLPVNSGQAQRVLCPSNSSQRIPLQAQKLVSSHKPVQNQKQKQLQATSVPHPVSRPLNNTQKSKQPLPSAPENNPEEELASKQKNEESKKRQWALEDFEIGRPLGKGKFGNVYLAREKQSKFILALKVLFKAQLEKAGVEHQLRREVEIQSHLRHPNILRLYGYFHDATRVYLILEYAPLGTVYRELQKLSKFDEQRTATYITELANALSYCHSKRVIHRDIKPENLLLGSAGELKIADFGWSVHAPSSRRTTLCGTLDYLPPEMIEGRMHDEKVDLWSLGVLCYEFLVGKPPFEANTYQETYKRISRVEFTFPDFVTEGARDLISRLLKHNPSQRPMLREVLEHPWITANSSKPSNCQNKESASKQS
How it was run: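 Active enzyme incubated 1 h with biotinylated STK substrate-2, 1 mM ATP and inhibitor in Hepes pH 7.4 with MgCl2, orthovanadate and Triton X-100. EDTA stop; phosphopeptide detected by Eu-cryptate anti-phospho-STK/SA-XL665 TR-FRET (665/615 nm ratio); IC50 by exponential fit.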

[4] = target: T2, Aurora B (Homo sapiens, UniProt Q96GD4); test: Aurora B enzyme inhibition (time-resolved fluorescence, histone H3 peptide); format: biochemical; settings: 1 mM ATP
T2 construct: Active Aurora B enzyme (recombinant residues 1-344)
How it was run: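 Recombinant Aurora B (residues 1-344) with GST-INCENP phosphorylated biotinylated histone H3 (1-21) peptide at 1 mM ATP in HEPES pH 7.4 with MgCl2, orthovanadate and Triton X-100 for 1 h. After EDTA stop, the phosphopeptide was detected by TR-FRET (Eu-cryptate anti-phospho-H3 / SA-APC, 665/615 nm ratio). IC50 from an exponential fit.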

T2 sequence (Q96GD4 whole entry, the tested form may be a part): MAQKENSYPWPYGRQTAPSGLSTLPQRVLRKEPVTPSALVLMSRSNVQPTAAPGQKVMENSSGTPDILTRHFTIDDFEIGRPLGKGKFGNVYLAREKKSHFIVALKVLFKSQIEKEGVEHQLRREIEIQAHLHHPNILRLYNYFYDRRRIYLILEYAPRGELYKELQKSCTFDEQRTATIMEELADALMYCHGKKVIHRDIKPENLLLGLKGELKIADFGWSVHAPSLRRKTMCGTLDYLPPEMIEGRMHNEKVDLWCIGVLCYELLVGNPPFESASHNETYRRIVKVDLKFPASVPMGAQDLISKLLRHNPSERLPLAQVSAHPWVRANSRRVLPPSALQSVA
T2 sequence (Q9NQS7 826-918 partner limits assumed): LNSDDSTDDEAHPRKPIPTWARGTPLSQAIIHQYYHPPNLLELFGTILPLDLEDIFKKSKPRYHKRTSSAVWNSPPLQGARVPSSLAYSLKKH
KDR, sequence (P35968 789-1354): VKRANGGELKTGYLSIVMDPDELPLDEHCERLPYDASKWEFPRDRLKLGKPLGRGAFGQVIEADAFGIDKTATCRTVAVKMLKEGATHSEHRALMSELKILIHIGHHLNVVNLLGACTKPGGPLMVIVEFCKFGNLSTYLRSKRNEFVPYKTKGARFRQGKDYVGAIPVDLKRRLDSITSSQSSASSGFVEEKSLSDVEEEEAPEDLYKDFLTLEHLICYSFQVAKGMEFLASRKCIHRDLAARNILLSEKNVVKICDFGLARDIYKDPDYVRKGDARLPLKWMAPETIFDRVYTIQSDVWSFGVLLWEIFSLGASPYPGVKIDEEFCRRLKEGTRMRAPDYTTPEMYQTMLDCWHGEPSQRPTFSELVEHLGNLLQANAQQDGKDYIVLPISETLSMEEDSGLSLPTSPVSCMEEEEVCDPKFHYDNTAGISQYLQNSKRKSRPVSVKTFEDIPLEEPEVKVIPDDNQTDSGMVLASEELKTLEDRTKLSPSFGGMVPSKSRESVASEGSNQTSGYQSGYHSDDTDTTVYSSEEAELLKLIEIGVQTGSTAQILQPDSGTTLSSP

Row | Compound | Ki [1] | EC15 (concentration of inhibitor necessary to induce polyploidy in 15% of cells) [2] | Ki [3] | Ki [4]
1 | Cn1cc(Nc2ncc(C(F)(F)F)c(N[C@@H]3CCC[C@@H]3C(N)=O)n2)cn1.Cn1cc(Nc2ncc(C(F)(F)F)c(N[C@H]3CCC[C@H]3C(N)=O)n2)cn1 (mixture of isomers) [Example 25, (1S,2R)-2-{[2-[(1-methyl-1H-pyrazol-4-yl)amino]-5-(trifluoromethyl)pyrimidin-4-yl]amino}cyclopentanecarboxamide and (1R,2S)-2-{[2-[(1-methyl-1H-pyrazol-4-yl)amino]-5-(trifluoromethyl)pyrimidin-4-yl]amino}cyclopentanecarboxamide] | 0.1 to 1 µM | A (“A” represents an EC15 of less than 0.1 μM) | 0.1 to 1 µM | < 0.1 µM
2 | CNC(=O)[C@@H]1[C@H](Nc2nc(Nc3cnn(C)c3)ncc2F)[C@H]2C=C[C@@H]1C2.CNC(=O)[C@H]1[C@@H](Nc2nc(Nc3cnn(C)c3)ncc2F)[C@@H]2C=C[C@H]1C2 (mixture of isomers) [Example 9, (1S,2S,3R,4R)-3-({5-fluoro-2-[(1-methyl-1H-pyrazol-4-yl)amino]pyrimidin-4-yl}amino)-N-methylbicyclo[2.2.1]hept-5-ene-2-carboxamide and (1R,2R,3S,4S)-3-({5-fluoro-2-[(1-methyl-1H-pyrazol-4-yl)amino]pyrimidin-4-yl}amino)-N-methylbicyclo[2.2.1]hept-5-ene-2-carboxamide] | > 5 µM | A (“A” represents an EC15 of less than 0.1 μM) | 0.1 to 1 µM | < 0.1 µM
3 | Cc1cnc(Nc2cnn(C)c2)nc1N[C@@H]1[C@H](C(N)=O)[C@H]2C=C[C@@H]1C2.Cc1cnc(Nc2cnn(C)c2)nc1N[C@H]1[C@@H](C(N)=O)[C@@H]2C=C[C@H]1C2 (mixture of isomers) [Example 17, (1S,2S,3R,4R)-3-({5-methyl-2-[(1-methyl-1H-pyrazol-4-yl)amino]pyrimidin-4-yl}amino)bicyclo[2.2.1]hept-5-ene-2-carboxamide and (1R,2R,3S,4S)-3-({5-methyl-2-[(1-methyl-1H-pyrazol-4-yl)amino]pyrimidin-4-yl}amino)bicyclo[2.2.1]hept-5-ene-2-carboxamide] | 0.1 to 1 µM | A (“A” represents an EC15 of less than 0.1 μM) | 0.1 to 1 µM | < 0.1 µM
4 | Cn1cc(Nc2ncc(C(F)(F)F)c(N[C@@H]3CC=CC[C@@H]3C(N)=O)n2)cn1.Cn1cc(Nc2ncc(C(F)(F)F)c(N[C@H]3CC=CC[C@H]3C(N)=O)n2)cn1 (mixture of isomers) [Example 26, (1S,6R)-6-{[2-[(1-methyl-1H-pyrazol-4-yl)amino]-5-(trifluoromethyl)pyrimidin-4-yl]amino}cyclohex-3-ene-1-carboxamide and (1R,6S)-6-{[2-[(1-methyl-1H-pyrazol-4-yl)amino]-5-(trifluoromethyl)pyrimidin-4-yl]amino}cyclohex-3-ene-1-carboxamide] | 1 to 5 µM | A (“A” represents an EC15 of less than 0.1 μM) | 1 to 5 µM | < 0.1 µM
5 | CCn1cc(Nc2ncc(F)c(N[C@@H]3[C@H](C(N)=O)[C@H]4C=C[C@@H]3C4)n2)cn1.CCn1cc(Nc2ncc(F)c(N[C@H]3[C@@H](C(N)=O)[C@@H]4C=C[C@H]3C4)n2)cn1 (mixture of isomers) [Example 8, (1S,2S,3R,4R)-3-({2-[(1-ethyl-1H-pyrazol-4-yl)amino]-5-fluoropyrimidin-4-yl}amino)bicyclo[2.2.1]hept-5-ene-2-carboxamide and (1R,2R,3S,4S)-3-({2-[(1-ethyl-1H-pyrazol-4-yl)amino]-5-fluoropyrimidin-4-yl}amino)bicyclo[2.2.1]hept-5-ene-2-carboxamide] | 0.1 to 1 µM | A (“A” represents an EC15 of less than 0.1 μM) | < 0.1 µM | < 0.1 µM
6 | Cn1cc(Nc2ncc(F)c(N[C@@H]3[C@H]4CC[C@H](C4)[C@@H]3C(N)=O)n2)cn1.Cn1cc(Nc2ncc(F)c(N[C@H]3[C@@H]4CC[C@@H](C4)[C@H]3C(N)=O)n2)cn1 (mixture of isomers) [Example 12, (1R,2S,3R,4S)-3-({5-fluoro-2-[(1-methyl-1H-pyrazol-4-yl)amino]pyrimidin-4-yl}amino)bicyclo[2.2.1]heptane-2-carboxamide and (1S,2R,3S,4R)-3-({5-fluoro-2-[(1-methyl-1H-pyrazol-4-yl)amino]pyrimidin-4-yl}amino)bicyclo[2.2.1]heptane-2-carboxamide] | 0.1 to 1 µM | B (“B” represents an EC15 of between 0.1 μM and 1 μM) | 0.1 to 1 µM | < 0.1 µM
7 | Cc1cnc(Nc2cnn(CCO)c2)nc1N[C@@H]1[C@H](C(N)=O)[C@H]2C=C[C@@H]1C2.Cc1cnc(Nc2cnn(CCO)c2)nc1N[C@H]1[C@@H](C(N)=O)[C@@H]2C=C[C@H]1C2 (mixture of isomers) [Example 18, (1S,2S,3R,4R)-3-[(2-{[1-(2-hydroxyethyl)-1H-pyrazol-4-yl]amino}-5-methylpyrimidin-4-yl)amino]bicyclo[2.2.1]hept-5-ene-2-carboxamide and (1R,2R,3S,4S)-3-[(2-{[1-(2-hydroxyethyl)-1H-pyrazol-4-yl]amino}-5-methylpyrimidin-4-yl)amino]bicyclo[2.2.1]hept-5-ene-2-carboxamide] | 0.1 to 1 µM | A (“A” represents an EC15 of less than 0.1 μM) | 0.1 to 1 µM | 0.1 to 1 µM
8 | NC(=O)[C@@H]1[C@H](Nc2nc(Nc3cnn(CCO)c3)ncc2F)[C@H]2C=C[C@@H]1C2.NC(=O)[C@H]1[C@@H](Nc2nc(Nc3cnn(CCO)c3)ncc2F)[C@@H]2C=C[C@H]1C2 (mixture of isomers) [Example 11, (1S,2S,3R,4R)-3-[(5-fluoro-2-{[1-(2-hydroxyethyl)-1H-pyrazol-4-yl]amino}pyrimidin-4-yl)amino]bicyclo[2.2.1]hept-5-ene-2-carboxamide and (1R,2R,3S,4S)-3-[(5-fluoro-2-{[1-(2-hydroxyethyl)-1H-pyrazol-4-yl]amino}pyrimidin-4-yl)amino]bicyclo[2.2.1]hept-5-ene-2-carboxamide] | 0.1 to 1 µM | A (“A” represents an EC15 of less than 0.1 μM) | < 0.1 µM | < 0.1 µM
